Data from patent publication US12570612B2, “Substituted nitrogen heterocyclic compound and anesthetic effect thereof” (priority 2019, dated 2026).
Entries after “also recorded” stand apart in the source; their conditions may differ. Where two headings read alike, the source gives them in different places.

Tests used:
[1] = tested on: Sprague-Dawley rats; test: Continuous infusion at 2 times the MIR for 1 hour, Group B compounds; format: in vivo; conditions: for Recovery time after stopping infusion: after 1 hour continuous infusion at 2 times the MIR; for Recovery time after stopping infusion / Onset time: rats; for Types and incidence of adverse reactions: Tongue stretching / Types and incidence of adverse reactions: Tremor: continuous infusion 2 x MIR 1 hour, rats affected/rats; for Onset time: continuous tail vein infusion at 2 times the MIR, emulsion
Procedure: Time to recovery of righting reflex from stopping infusion, and time to fully awake from stopping infusion were recorded.

[2] = tested on: Sprague-Dawley rats; test: animal or person; conditions: for ED50: LORR in rats, tail vein, brackets = 95% confidence limit; for Approximate therapeutic index / Minimal lethal dose: rats
Procedure: (§1) Adult male Sprague-Dawley rats (250-300 g) were selected for the experiment. […] The anesthesia effects of the compounds were assessed in rats using a LORR assay and a period >30 s was considered as an indicator of general anesthesia.

[3] = tested on: H295R cell line; test: Adrenocortical function in vitro test: secretion of cortisol and corticosterone, Group B compounds; format: cell-based; conditions: H295R cells; for EC50: 0.1-10000 nM, HPLC-MS/MS
[4] = tested on: Sprague-Dawley rats; test: animal or person; format: in vivo; conditions: LORR, up and down method, tail vein, rats, class symbols
Text: Evaluating indicator: The end point of anesthesia: LORR was used as the end point of anesthesia; General anesthesia effect: the disappearance of forepaw righting reflex in rats lasting for 30 seconds is taken as the index of general anesthesia effect; Anesthesia recovery index: the recovery of rat forepaw righting reflex was used as the index of anesthesia recovery.

[5] = tested on: Sprague-Dawley rats; test: Pharmacological effect and adverse reactions under the equivalent dose (2ED50), Group C compounds; format: in vivo
Text: (§2) Evaluation index: onset time: from the completion of drug injection to the disappearance of forepaw righting reflex in rats; Duration of anesthesia: the time from the disappearance of rat forepaw righting reflex to the recovery of rat forepaw righting reflex; Recovery time of anesthesia: the time from the […] to complete recovery;

[6] = tested on: Sprague-Dawley rats; test: animal or person; format: in vivo; conditions: LORR, up and down method, tail vein, rats, class symbols; remark: listed apart in the source
Text: Evaluating indicator: The end point of anesthesia: the disappearance of forepaw righting reflex (lorr) was used as the end point of anesthesia; General anesthesia effect: the disappearance of forepaw righting reflex in rats lasting for 30 seconds is taken as the index of general anesthesia effect; Anesthesia recovery index: the recovery of rat forepaw righting reflex was used as the index of anesthesia recovery.

[7] = tested on: Sprague-Dawley rats; test: Pharmacological effect and adverse reactions under the equivalent dose (2ED50), Group D compounds; format: in vivo
Text: as §2

[8] = tested on: Sprague-Dawley rats; test: animal or person; conditions: for ED50: Rattus norvegicus; for Approximate therapeutic index / Minimal lethal dose: rats
Procedure: as §1

[9] = tested on: H295R cell line; test: Adrenocortical function in vitro test: secretion of cortisol and corticosterone, Group A compounds; format: cell-based; conditions: H295 cells; for EC50: Homo sapiens, 0.1-10000 nM, HPLC-MS/MS
[10] = tested on: Sprague-Dawley rats; test: Pharmacological characteristics at equivalent doses (2ED50), Group A compounds; format: in vivo; conditions: 2ED50, tail vein; for Types and incidence of adverse reactions: (animals affected/animals)
[11] = read-out: EC50 (Corticosterone)
[12] = Rattus norvegicus, read-out: ED50
[13] = 2ED50, tail vein, rats, n=8, unit min
[14] = equivalent dose (2ED50), number of rats of n = 8
[15] = equivalent dose (2 × ED50), number of rats of n = 8

Compound: CCOC(=O)c1nnn([C@H](C)c2ccccc2)c1Br [Compound B100]
- Recovery time after stopping infusion [1]: 15 to 17 min
- Types and incidence of adverse reactions: Tongue stretching [1]: stretching(3/6)
- Types and incidence of adverse reactions: Tremor [1]: Tremor(2/6), Tongue
- Onset time [1]: 5 to 6 min
- ED50 [2]: D (D indicates that the measured ED50 is in the range of 2.00-10.00 mg/kg (excluding 2.00 mg/kg, including 10.00 mg/kg))
- Approximate therapeutic index [2]: >2
- Minimal lethal dose [2]: >18 mg/kg
- Corticosterone as an indicator to determine the presence of inhibition [3]: 0
- Cortisol as an indicator to determine the presence of inhibition [3]: 0
- EC50 [3, 11]: > 1000 nM
- EC50 ([3]; read-out: EC50 (Cortisol)): > 1000 nM

Compound: C[C@H](c1ccccc1)n1cncc1C(=O)COCC1CCC1 [Compound C29]
- ED50 [4, 12]: 2 to 10 mg/kg

Compound: CC#CC(=O)c1cncn1[C@H](C)c1ccccc1 [Compound C54]
- ED50 [4, 12]: 20 to 30 mg/kg

Compound: C[C@H](c1ccccc1)n1nncc1C(=O)OC1(C)COC1 [Compound B14]
- Types and incidence of adverse reactions: Tremor [1]: Tremor(3/6)
- Onset time [1]: 5 to 6 min
- ED50 ([2]; Rattus norvegicus): 1 to 2 mg/kg
- Approximate therapeutic index [2]: >5
- Minimal lethal dose [2]: >7 mg/kg
- Corticosterone as an indicator to determine the presence of inhibition [3]: 0
- Cortisol as an indicator to determine the presence of inhibition [3]: 0
- EC50 ([3]; Homo sapiens, NCI-H295R, read-out: EC50 (Corticosterone)): > 1000 nM
- EC50 ([3]; Homo sapiens, NCI-H295R, read-out: EC50 (Cortisol)): > 1000 nM

Compound: CC#CCOCC(=O)c1ccnn1[C@H](C)c1ccccc1 [Compound C1]
- ED50 [4]: ++++ (++++ indicates that the measured ED50 is in the range of 2.00-10.00 mg/kg (excluding 2.00 mg/kg, including 6.00 mg/kg))
- Righting reflex duration ([5]; 2ED50, tail vein, rats, n=8): 0.90 ± 0.30 min
- Sedation duration ([5]; 2ED50, tail vein, rats, n=8): 9.06 ± 1.21 min
- Onset time [5, 13]: <1 min
- Adverse reaction: Convulsions [5, 14]: 0
- Adverse reaction: Cough, broken-winded [5, 14]: 0
- Adverse reaction: Euphoria [5, 14]: 2
- Adverse reaction: Red urine [5, 14]: 8
- Adverse reaction: Slower breathing, Tetany convulsion [5, 14]: 0
- Adverse reaction: Systemic stiffness, Convulsions, Opisthotonus [5, 14]: 0
- Adverse reaction: Tongue stretching [5, 14]: 1
- Adverse reaction: Tremor [5, 14]: 0
- Adverse reaction: the four limbs rigidity [5, 14]: 0

Compound: CC#CCOC(=O)C(=O)c1cncn1[C@H](C)c1ccccc1 [Compound D84]
- ED50 [6, 12]: 2 to 6 mg/kg

Compound: CC#CCOCC(OC)(OC)C(=O)c1cncn1[C@H](C)c1ccccc1 [Compound D73]
- ED50 [6]: +++++ (+++++ indicates that the measured ED50 is greater than 6.00 mg/kg (excluding 6.00 mg/kg))

Compound: CCOC(OC)(OC)C(=O)c1ccnn1[C@H](C)c1ccccc1 [Compound D3]
- ED50 [6, 12]: 2 to 6 mg/kg
- Righting reflex duration ([7]; 2ED50, tail vein, rats, n=8): 1.25 ± 0.27 min
- Sedation duration ([7]; 2ED50, tail vein, rats, n=8): 6.26 ± 1.50 min
- Onset time [7, 13]: <1 min
- Adverse reaction: Convulsions [7, 15]: 0
- Adverse reaction: Cough, broken-winded [7, 15]: 0
- Adverse reaction: Euphoria [7, 15]: 0
- Adverse reaction: Four limbs rigidity [7, 15]: 1
- Adverse reaction: Red urine [7, 15]: 8
- Adverse reaction: Slower breathing, Tetany convulsion [7, 15]: 0
- Adverse reaction: Systemic stiffness, Convulsions, Opisthotonus [7, 15]: 0
- Adverse reaction: Tongue stretching [7, 15]: 0
- Adverse reaction: Tremor [7, 15]: 1

Compound: C[C@H](c1ccccc1)n1nnc(Cl)c1C(=O)SC1CCC1 [Compound B80]
- Recovery time after stopping infusion [1]: 12 to 16 min
- Types and incidence of adverse reactions: Tremor [1]: Tremor(5/6)
- Onset time [1]: 3 to 5 min
- ED50 [2]: D (D indicates that the measured ED50 is in the range of 2.00-10.00 mg/kg (excluding 2.00 mg/kg, including 10.00 mg/kg))
- Approximate therapeutic index [2]: >3
- Minimal lethal dose [2]: >16 mg/kg
- Corticosterone as an indicator to determine the presence of inhibition [3]: 0
- Cortisol as an indicator to determine the presence of inhibition [3]: 0
- EC50 [3, 11]: > 1000 nM
- EC50 ([3]; read-out: EC50 (Cortisol)): > 1000 nM

Compound: C[C@H](c1ccccc1)n1nncc1C(=O)OC1CCC1 [Compound B6]
- Recovery time after stopping infusion [1]: 14 to 16 min
- Types and incidence of adverse reactions: Tongue stretching [1]: stretching(2/6)
- Types and incidence of adverse reactions: Tremor [1]: Tremor(2/6), Tongue
- Onset time [1]: 4 to 6 min
- ED50 [2]: A (A indicates that the measured ED50 is in the range of 0.04-0.50 mg/kg (including 0.04 and 0.50 mg/kg))
- Approximate therapeutic index [2]: >71
- Minimal lethal dose [2]: >10 mg/kg
- Corticosterone as an indicator to determine the presence of inhibition [3]: 0
- Cortisol as an indicator to determine the presence of inhibition [3]: 0
- EC50 [3, 11]: > 100 nM
- EC50 ([3]; read-out: EC50 (Cortisol)): > 100 nM

Compound: CC(=O)COCC(=O)c1c(F)ncn1[C@H](C)c1ccccc1 [Compound C84]
- ED50 [4, 12]: 10 to 20 mg/kg

Compound: CCC(CC)OC(=O)C(=O)c1cncn1[C@H](C)c1ccccc1 [Compound D83]
- ED50 [6, 12]: > 6 mg/kg

Compound: CC(=O)OCC(=O)c1cncn1[C@H](C)c1ccccc1 [Compound C53]
- ED50 [4, 12]: 10 to 20 mg/kg

Compound: C=C=CC1(OC(=O)c2c(Cl)cnn2[C@H](C)c2ccccc2)COC1 [Compound A108]
- ED50 [8]: 2 to 6 mg/kg
- Approximate therapeutic index [8]: >5
- Minimal lethal dose [8]: >15 mg/kg
- Corticosterone as an indicator to determine the presence of inhibition [9]: 0
- Cortisol as an indicator to determine the presence of inhibition [9]: 0
- EC50 [9, 11]: > 100 nM
- EC50 ([9]; read-out: EC50 (Cortisol)): > 100 nM
- Onset time [10]: 0.26 ± 0.20 min
- Righting reflex duration [10]: 3.29 ± 1.20 min
- Types and incidence of adverse reactions [10]: Red urine(8/8), Hindlimb; also recorded: rigidity (7/8), the four; also recorded: limbs Tremor(3/8)

Compound: CC#CC(C)(C)OC(=O)c1ccnn1[C@H](C)c1ccccc1 [Compound A12]
- ED50 [8]: 1 to 2 mg/kg
- Approximate therapeutic index [8]: >4
- Minimal lethal dose [8]: >6 mg/kg
- Corticosterone as an indicator to determine the presence of inhibition [9]: 0
- Cortisol as an indicator to determine the presence of inhibition [9]: 0
- EC50 [9, 11]: > 100 nM
- EC50 ([9]; read-out: EC50 (Cortisol)): > 100 nM
- Onset time [10]: 0.69 ± 0.22 min
- Righting reflex duration [10]: 3.16 ± 2.13 min
- Types and incidence of adverse reactions [10]: Red urine(8/8),; also recorded: Tremor(3/8),; also recorded: Euphoria(1/8), Hindlimb; also recorded: rigidity (1/8), Clonic; also recorded: convulsion(1/8), Tetany; also recorded: Apnea(1/8), Nod(1/8)

Compound: C=CC#CC(C)(C)OC(=O)c1ccnn1[C@H](C)c1ccccc1 [Compound A16]
- ED50 [8]: 2 to 6 mg/kg
- Approximate therapeutic index [8]: >4
- Minimal lethal dose [8]: >12 mg/kg
- Corticosterone as an indicator to determine the presence of inhibition [9]: 0
- Cortisol as an indicator to determine the presence of inhibition [9]: 0
- EC50 [9, 11]: > 100 nM
- EC50 ([9]; read-out: EC50 (Cortisol)): > 100 nM
- Onset time [10]: 0.55 ± 0.21 min
- Righting reflex duration [10]: 2.55 ± 1.54 min

Compound: C=C=CC1(OC(=O)c2c(C(F)(F)F)cnn2[C@H](C)c2ccccc2)COC1 [Compound A100]
- ED50 [8]: 2 to 6 mg/kg
- Approximate therapeutic index [8]: >6
- Minimal lethal dose [8]: >14 mg/kg
- Corticosterone as an indicator to determine the presence of inhibition [9]: 0
- Cortisol as an indicator to determine the presence of inhibition [9]: 0
- EC50 [9, 11]: > 100 nM
- EC50 ([9]; read-out: EC50 (Cortisol)): > 100 nM
- Onset time [10]: 0.49 ± 0.17 min
- Righting reflex duration [10]: 3.21 ± 0.89 min
- Types and incidence of adverse reactions [10]: Red urine(8/8), Indirect; also recorded: tremor Tremor(4/8), Four; also recorded: limbs; also recorded: rigidity(2/8), Euphoria(2/8)
